Results taken from patent US9259401B2 (priority 2011, dated 2016).
Where two headings read alike, the source gives them in different places.

Columns and labels:
[1] = Safety and tolerability of a single dose in healthy human subjects; format: in vivo; conditions: curcumin 1 gm single dose
Source text: The secondary aim of study was to monitor the safety and tolerability of a single dose of 1 g curcuminoids when administered in 12 healthy human subjects.

[2] = Comparative bioavailability study, curcumin in plasma by HPLC; format: in vivo, human; conditions: for AUC(0-inf) / AUC(0-t) / Cmax / Tmax / concentration at 0 hr / concentration at 1 hr / concentration at 2 hr / concentration at 4 hr: human, plasma, po, 1 gm
Experimental: The bioavailability study was conducted at Amala Cancer Institute, Thrissur, Kerala on a request from the applicant. Twelve healthy subjects were recruited for the purpose of the study. […] The study design chosen was a balanced, open label, two-treatment, two-period, single dose, bioavailability study.
12 Subject were recruited for the study and were asked to avoid consumption of food containing rich turmeric powder or extract for 24 hours preceding each period. […] The following supplements were used for the purpose of the study:
Each of the supplements were administered with 240 ml water in each period.
The study design is open label, two-treatment, two-period, single dose, bioavailability study. […] Subjects were asked to avoid consumption of food containing rich turmeric powder or extract for 24 hours preceding each period. […] There was a washout period of at least 2 weeks between the doses.
Blood was drawn from each subject just prior to dosing and at 1, 2, 4, 6, 8, and 24 hours post-dose. The total blood loss for each subject was approximately 70 ml and there were totally 14 blood samples of 5 ml each time point throughout the study.
The primary efficacy variables were measured in this study were Cmax, AUCO-t and AUCO-∞ and the secondary efficacy variable were as follows Tmax, T½ and Kel. The statistical evaluation was done by Winnonlin Software 5.0.1 version. […] Tmax and T½ were also be recorded and compared for the two products.
Preparation of Sample (Spiked with Standard Solution E): The frozen plasma samples were allowed to attain the room temperature. 1000 μl of the plasma sample was pipetted out and spiked with 100 μl of spiking standard solution E. This solution was vortex for 1 minute and 3.0 ml ethyl acetate (HPLC Grade) was added to the above solutions. The solution was vortex again for 1 minute with the aid of cyclomixer and allowed to settle down at room temperature.
1.5 ml of the upper ethyl acetate layer was pipetted out and evaporated to dryness using vacuum. The dried sample was dissolved in 600 μl of methanol (HPLC Grade) using vortex mixer. This solution was filtered by 0.2 micron membrane filter paper. 100 μl of these filtered solution was injected in HPLC (Waters Alliance System with 2996 PDA detector in isocratic mode). The column used was LiChrospher 100 RP-18 (250×4.6 mm 5 μM particle size) with methanol as the mobile phase and the detection wavelength was 420 nm. To identify and quantized curcuminoids in plasma the chromatographic peaks were compared with standard solution.

[3] = 1 gm curcuminoids oral, read-out: Geometric Mean plasma concentration
[4] = 1 gm curcuminoids oral, read-out: Max plasma concentration
[5] = 1 gm curcuminoids oral, read-out: Mean plasma concentration
[6] = 1 gm curcuminoids oral, read-out: Median plasma concentration
[7] = 1 gm curcuminoids oral, read-out: Min plasma concentration

## COc1cc(C=CC(=O)CC(=O)C=Cc2ccc(O)c(OC)c2)ccc1O [Curcumin, 1,7-bis(4-hydroxy-3-methoxyphenyl)-1,6-heptadien-3,5-dione]
[1]; all subjects
  Tolerability: well tolerated
[1]; entire course of study
  Adverse events: no adverse events reported
[2]; 1 gm curcuminoids oral
  AUCINF, Max: 87.74 ng·h/mL
  AUCINF, Min: 76.09 ng·h/mL
  AUCT, Max: 198.27 ng·h/mL
  AUCT, Min: 31.24 ng·h/mL
  Cmax, Max: 36.11 ng/mL
  Cmax, Min: 2.48 ng/mL
  Thalf, Geometric Mean: 7.066 h
  Thalf, Max: 11.39 h
  Thalf, Mean: 7.516 h
  Thalf, Median: 5.95 h
  Thalf, Min: 5.21 h
  Tmax, Max: 24.00 h
  Tmax, Min: 1.00 h
[2]; 1 gm curcuminoids oral, listed as Curcumin Extract Powder (min 95% Curcuminoids)
  AUCINF, Mean (mean AUC): 80.433 ng·h/mL
[2]; 1 gm curcuminoids oral, read-out: AUCINF, Geometric Mean
  AUC(0-inf): 80.3 ng·h/mL
[2]; 1 gm curcuminoids oral, read-out: AUCINF, Mean (mean AUC)
  AUC(0-inf): 80.4 ng·h/mL
[2]; 1 gm curcuminoids oral, read-out: AUCINF, Median
  AUC(0-inf): 77.5 ng·h/mL
[2]; 1 gm curcuminoids oral, read-out: AUCT, Geometric Mean
  AUC(0-t): 81 ng·h/mL
[2]; 1 gm curcuminoids oral, read-out: AUCT, Mean
  AUC(0-t): 98.8 ng·h/mL
[2]; 1 gm curcuminoids oral, read-out: AUCT, Median
  AUC(0-t): 77.8 ng·h/mL
[2]; 1 gm curcuminoids oral, read-out: Cmax, Geometric Mean
  Cmax: 10.5 ng/mL
[2]; 1 gm curcuminoids oral, read-out: Cmax, Mean
  Cmax: 13.3 ng/mL
[2]; 1 gm curcuminoids oral, read-out: Cmax, Median
  Cmax: 10.3 ng/mL
[2]; 1 gm curcuminoids oral, read-out: Tmax, Geometric Mean
  Tmax: 4.06 h
[2]; 1 gm curcuminoids oral, read-out: Tmax, Mean
  Tmax: 8.25 h
[2]; 1 gm curcuminoids oral, read-out: Tmax, Median
  Tmax: 3 h
[2]; individual subjects, 1 gm curcuminoids oral, read-out: AUCINF
  AUC(0-inf): 76.1 ng·h/mL
[2]; time 0 hr (prior to dosing), 1 gm curcuminoids oral, read-out: Mean plasma concentration
  concentration at 0 hr: 0 ng/mL
[2]; time 0.00 hr (prior to dosing), individual subjects, single oral dose equivalent to 1 gm curcuminoids, read-out: Individual plasma concentration
  concentration at 0 hr: 0 ng/mL
[2]; time 0 hr, 1 gm curcuminoids oral, read-out: Geometric Mean plasma concentration
  concentration at 0 hr: 0 ng/mL
[2]; time 0 hr, 1 gm curcuminoids oral, read-out: Max plasma concentration
  concentration at 0 hr: 0 ng/mL
[2]; time 0 hr, 1 gm curcuminoids oral, read-out: Median plasma concentration
  concentration at 0 hr: 0 ng/mL
[2]; time 0 hr, 1 gm curcuminoids oral, read-out: Min plasma concentration
  concentration at 0 hr: 0 ng/mL
[2]; [3]
  concentration at 1 hr: 1.58 ng/mL
  concentration at 2 hr: 13.5 ng/mL
  concentration at 4 hr: 4.89 ng/mL
[2]; [4]
  concentration at 1 hr: 20.6 ng/mL
  concentration at 2 hr: 19.8 ng/mL
  concentration at 4 hr: 15.6 ng/mL
[2]; [5]
  concentration at 1 hr: 5.46 ng/mL
  concentration at 2 hr: 14.4 ng/mL
[2]; [6]
  concentration at 1 hr: 1.66 ng/mL
  concentration at 2 hr: 14.9 ng/mL
[2]; [7]
  concentration at 1 hr: 0.05 ng/mL
  concentration at 2 hr: 8.39 ng/mL
